Results on twelve compounds are retold here after ChEMBL document CHEMBL4689842, “EUbOPEN Chemogenomics Library wave 1” (2021).

Holding throughout (format): toxicity, cell-based
The test system of data set [1] is U2OS. In words: Incucyte cell viability with U2OS. The following applies: human, 10 µM, compound concentration 10 uM.
The test system of data set [2] is HEK-293T. The data set can be described thus: Incucyte cell viability with HEK293T. The conditions noted are these: human, 10 µM, compound concentration 10 uM.
The subject of data set [3] is Fibroblast. The data set can be described thus: Incucyte cell viability with human fibroblast. The following applies: 10 µM, compound concentration 10 uM.
Setting [4] is: 0 h, replicate number 2, timepoint 0 hours.
Setting [5] is: 6 h, replicate number 1, timepoint 6 hours.
Setting [6] is: 6 h, replicate number 2, timepoint 6 hours.
Where [7] appears, read: 12 h, replicate number 1, timepoint 12 hours.
The mark [8] stands for this setting: 12 h, replicate number 2, timepoint 12 hours.
The mark [9] stands for this setting: 18 h, replicate number 1, timepoint 18 hours.
Where [10] appears, read: 18 h, replicate number 2, timepoint 18 hours.
[11] abbreviates: 24 h, replicate number 1, timepoint 24 hours.
The mark [12] stands for this setting: 24 h, replicate number 2, timepoint 24 hours.
The mark [13] stands for this setting: 0 h, replicate number 1, timepoint 0 hours.
Also: filed as whole numbers so only -1 and 0 and 1 occur.

For `C[C@H](c1ccc(F)cc1)N(Cc1cccc(C(=O)O)c1)C(=O)c1cnc2ccccc2c1` [PF-05105679], the “Growth Rate” value in data set [1] (setting [4]) came out at 0; in data set [1] (setting [5]), 0; in data set [1] (setting [6]), 1; in data set [1] (setting [7]), 0; in data set [1] (setting [8]), 1; in data set [1] (setting [9]), 0. Besides, the “Growth Rate” value stood at 1 in data set [1] (setting [10]); 0 in data set [1] (setting [11]); 1 in data set [1] (setting [12]); 1 in data set [2] (setting [13]); 0 in data set [2] (setting [4]); 0 in data set [2] (setting [5]). For the same compound, the “Growth Rate” value came out at 1 in data set [2] (setting [6]); 1 in data set [2] (setting [7]); 0 in data set [2] (setting [8]); 1 in data set [2] (setting [9]); 1 in data set [2] (setting [11]); 0 in data set [2] (setting [12]). The “Growth Rate” value came out at 0 in data set [3] (setting [13]); 0 in data set [3] (setting [6]); 1 in data set [3] (setting [7]); 1 in data set [3] (setting [9]); 1 in data set [3] (setting [11]).
Regarding `COc1ccc(S(=O)(=O)c2cc(OC)ccc2S(=O)(=O)c2ccc([C@H](C)NS(C)(=O)=O)cc2)cc1`, the “Growth Rate” value in data set [1] (setting [13]) is given as 0; in data set [1] (setting [6]), 0; in data set [1] (setting [7]), 0; in data set [1] (setting [8]) it was 1; in data set [1] (setting [9]), 1; in data set [1] (setting [10]), 0. In addition, the “Growth Rate” value stood at 1 in data set [1] (setting [11]); 0 in data set [1] (setting [12]); 1 in data set [2] (setting [13]); 0 in data set [2] (setting [4]); 0 in data set [2] (setting [5]); 1 in data set [2] (setting [6]). For the same compound, the “Growth Rate” value worked out at 1 in data set [2] (setting [7]); 1 in data set [2] (setting [9]); 1 in data set [2] (setting [11]); 0 in data set [3] (setting [13]); 1 in data set [3] (setting [4]); 0 in data set [3] (setting [6]). Further, the “Growth Rate” value in data set [3] (setting [8]), in data set [3] (setting [10]) and in data set [3] (setting [11]) was 1 each time.
For `Cc1ccccc1C(=O)Nc1ccc(C(=O)N2CCCC(O)c3cc(Cl)ccc32)c(C)c1` (stereo not drawn) [TOLVAPTAN], the “Growth Rate” value in data set [1] (setting [5]) stood at 0; in data set [1] (setting [7]), 0; in data set [1] (setting [9]) it was 0; in data set [1] (setting [11]) it was 1; in data set [2] (setting [13]), 1; in data set [2] (setting [4]) it was 0. Further, the “Growth Rate” value in data set [2] (setting [5]) was found to be 0; in data set [2] (setting [7]) it was 0; in data set [2] (setting [9]) it was 0; in data set [2] (setting [11]), 0; in data set [3] (setting [13]), 1; in data set [3] (setting [5]), 0. Moreover, the “Growth Rate” value in data set [3] (setting [7]) worked out at 1; in data set [3] (setting [8]) it was 0; in data set [3] (setting [9]), 1; in data set [3] (setting [10]), 0; in data set [3] (setting [11]), 1; in data set [3] (setting [12]), 0.
With `CC1(C)CCC(C)(C)c2cc(C(=O)Nc3ccc(C(=O)O)cc3)ccc21`, the “Growth Rate” value in data set [1] (setting [13]) is recorded as 0; in data set [1] (setting [6]) it was 1; in data set [1] (setting [7]), 1; in data set [1] (setting [9]) it was 1; in data set [1] (setting [11]) it was 1; in data set [2] (setting [13]), 0. The “Growth Rate” value was determined as 1 in data set [2] (setting [5]); 1 in data set [2] (setting [7]); 1 in data set [2] (setting [9]); 1 in data set [2] (setting [11]); 0 in data set [3] (setting [13]); 1 in data set [3] (setting [5]). In addition, the “Growth Rate” value in data set [3] (setting [6]) is 0; in data set [3] (setting [7]), 1; in data set [3] (setting [8]), 0; in data set [3] (setting [9]), 1; in data set [3] (setting [10]), 0; in data set [3] (setting [11]), 1.
In the case of `S=C=Nc1cccc(NC(=S)NCCCCNC(=S)Nc2cccc(N=C=S)c2)c1`, the “Growth Rate” value amounted to 0 in data set [1] (setting [13]); 0 in data set [1] (setting [6]); 1 in data set [1] (setting [7]); 0 in data set [1] (setting [8]); 0 in data set [1] (setting [9]); 0 in data set [1] (setting [11]). Besides, the “Growth Rate” value was 0 in data set [2] (setting [4]); 0 in data set [2] (setting [5]); 1 in data set [2] (setting [6]); 0 in data set [2] (setting [7]); 0 in data set [2] (setting [9]); 0 in data set [2] (setting [11]). The “Growth Rate” value in data set [3] (setting [13]), in data set [3] (setting [5]), in data set [3] (setting [7]), in data set [3] (setting [9]) and in data set [3] (setting [11]) was 0 in each case.
Take `CN1C[C@H](Nc2cnn(C)c(=O)c2Br)C[C@H](c2ccccc2)C1`: the “Growth Rate” value in data set [1] (setting [4]) is reported as 0; in data set [1] (setting [5]), 0; in data set [1] (setting [7]) it was 1; in data set [1] (setting [9]) it was 1; in data set [1] (setting [11]), 1; in data set [2] (setting [13]) it was 1. For the same compound, the “Growth Rate” value in data set [2] (setting [4]), in data set [2] (setting [5]), in data set [2] (setting [7]), in data set [2] (setting [9]), in data set [2] (setting [11]) and in data set [3] (setting [13]) was 0 throughout. The “Growth Rate” value in data set [3] (setting [5]) was 0; in data set [3] (setting [7]), 1; in data set [3] (setting [8]) it was 0; in data set [3] (setting [9]) it was 1; in data set [3] (setting [10]), 0; in data set [3] (setting [11]), 1. Further, in data set [3] (setting [12]), the “Growth Rate” value worked out at 0.
On to `O=C(O)CC/C=C\C[C@@H]1CO[C@H](c2ccccc2Cl)O[C@@H]1c1ccccc1O`, for which the “Growth Rate” value in data set [1] (setting [13]) came out at 0; in data set [1] (setting [6]) it was 0; in data set [1] (setting [7]), 1; in data set [1] (setting [8]) it was 0; in data set [1] (setting [9]) it was 0; in data set [1] (setting [11]) it was 1. The “Growth Rate” value was found to be 0 in data set [1] (setting [12]); 0 in data set [2] (setting [13]); 1 in data set [2] (setting [5]); 0 in data set [2] (setting [6]); 1 in data set [2] (setting [7]); 0 in data set [2] (setting [8]). The “Growth Rate” value in data set [2] (setting [9]) was found to be 1; in data set [2] (setting [11]), 1; in data set [3] (setting [13]), 0; in data set [3] (setting [5]) it was 1; in data set [3] (setting [6]), 0; in data set [3] (setting [7]), 1. The “Growth Rate” value in data set [3] (setting [9]) and in data set [3] (setting [11]) was 1 throughout.
For the compound `O=C(N[C@@H](C1CC1)C(F)(F)F)c1cc(-c2cnn3cc(-c4ccc(F)cc4)cnc23)cs1`, the “Growth Rate” value in data set [1] (setting [4]) is listed as 1; in data set [1] (setting [5]), 0; in data set [1] (setting [7]), 0; in data set [1] (setting [9]), 0; in data set [1] (setting [11]), 1; in data set [1] (setting [12]), 0. Besides, the “Growth Rate” value in data set [2] (setting [13]) was found to be 0; in data set [2] (setting [4]) it was 1; in data set [2] (setting [6]), 1; in data set [2] (setting [8]), 1; in data set [2] (setting [12]), 1; in data set [3] (setting [13]), 0. The “Growth Rate” value in data set [3] (setting [5]), in data set [3] (setting [7]), in data set [3] (setting [9]) and in data set [3] (setting [11]) was 1 in each case.
Turning to `C[C@H](N)COC(=O)[C@@H](CCCCN)NC(=O)Cc1c(-c2ccc3ccccc3c2)[nH]c2c1ccc1ccccc12`, the “Growth Rate” value in data set [1] (setting [4]) worked out at 0; in data set [1] (setting [6]), 0; in data set [1] (setting [7]) it was 1; in data set [1] (setting [9]), 1; in data set [1] (setting [11]) it was 1; in data set [2] (setting [13]) it was 0. In addition, the “Growth Rate” value was 1 in data set [2] (setting [5]); 0 in data set [2] (setting [6]); 1 in data set [2] (setting [7]); 0 in data set [2] (setting [8]); 1 in data set [2] (setting [9]); 0 in data set [2] (setting [10]). In addition, the “Growth Rate” value stood at 1 in data set [2] (setting [11]); 0 in data set [2] (setting [12]); 0 in data set [3] (setting [13]); 0 in data set [3] (setting [5]); 1 in data set [3] (setting [7]); 0 in data set [3] (setting [8]). For the same compound, the “Growth Rate” value in data set [3] (setting [9]) and in data set [3] (setting [11]) was 0 each time.
In the case of `CN(C)C(=O)/C(C#N)=C/c1ccc(-c2nc3cnc4c(ccn4C)c3n2C2CCCCC2)o1`, the “Growth Rate” value in data set [1] (setting [13]) is 0; in data set [1] (setting [5]), 0; in data set [1] (setting [6]), 1; in data set [1] (setting [7]) it was 0; in data set [1] (setting [8]), 1; in data set [1] (setting [9]) it was 0. The “Growth Rate” value in data set [1] (setting [10]) is recorded as 1; in data set [1] (setting [11]) it was 1; in data set [2] (setting [5]) it was 0; in data set [2] (setting [7]), 0; in data set [2] (setting [9]), 0; in data set [2] (setting [11]), 0. Further, the “Growth Rate” value in data set [3] (setting [5]) stood at 0; in data set [3] (setting [6]) it was 1; in data set [3] (setting [7]) it was 0; in data set [3] (setting [9]) it was 0; in data set [3] (setting [11]), 0.
`Cc1cc(C(C)(C)C)c(O)c(C)c1CC1=NCCN1.Cl` [OXYMETAZOLINE HYDROCHLORIDE]: the “Growth Rate” value stood at 0 in data set [1] (setting [5]); 1 in data set [1] (setting [6]); 0 in data set [1] (setting [7]); 1 in data set [1] (setting [8]); 0 in data set [1] (setting [9]); 0 in data set [1] (setting [11]). The “Growth Rate” value in data set [1] (setting [12]) is 1; in data set [2] (setting [13]) it was 0; in data set [2] (setting [5]), 1; in data set [2] (setting [6]) it was 0; in data set [2] (setting [7]), 1; in data set [2] (setting [8]), 0. For the same compound, the “Growth Rate” value stood at 1 in data set [2] (setting [9]); 0 in data set [2] (setting [10]); 1 in data set [2] (setting [11]); 0 in data set [2] (setting [12]); 0 in data set [3] (setting [13]); 1 in data set [3] (setting [6]). Moreover, the “Growth Rate” value in data set [3] (setting [7]) is 1; in data set [3] (setting [9]), 1; in data set [3] (setting [11]), 1; in data set [3] (setting [12]) it was 0.
As for `O=C(O)C1CN(Cc2ccc(OCc3ccc(Cl)c(Cl)c3)cc2)C1`, the “Growth Rate” value was 0 in data set [1] (setting [13]); 0 in data set [1] (setting [6]); 1 in data set [1] (setting [7]); 0 in data set [1] (setting [8]); 0 in data set [1] (setting [9]); 1 in data set [1] (setting [11]). Moreover, the “Growth Rate” value in data set [1] (setting [12]), in data set [2] (setting [4]), in data set [2] (setting [5]), in data set [2] (setting [7]), in data set [2] (setting [9]) and in data set [2] (setting [11]) was 0 throughout. For the same compound, the “Growth Rate” value in data set [3] (setting [13]) is reported as 1; in data set [3] (setting [5]), 0; in data set [3] (setting [7]), 0; in data set [3] (setting [9]), 0; in data set [3] (setting [11]), 0.
